US9102719B2, “SOGA polynucleotides and polypeptides and uses thereof” (University of North Carolina at Chapel Hill, priority 2009, dated 2015)

How the values were obtained:
[1] = system: NOD mice; test: Insulin injection in diabetic NOD mice; format: in vivo, mouse; conditions: single injection of insulin 24 hours earlier
Experimental: Mice were housed in ventilated isolator cage systems in a pathogen-free barrier facility maintained at 23° C., 55% humidity on a 12-h light/12-h dark cycle. Mice received a standard chow diet consisting of 73% carbohydrate, 18% protein, 4% fat and 5% ash (Purina). Young (3-6 month old) female C57B1/6J calorie restricted (CR) and ad libitum fed (AL) mice were maintained as previously described (Combs et al., Diabetes 52:268 (2003)). Adjustments were made to ensure that CR mice received 70% of the ad libitum food intake. Blood samples were collected at 1300 from the tail tip using heparinized capillary tubes (Fisher) and stored at −20° C. Male ob/ob mice (FVB background strain) received a daily dose of pioglitazone at 0.6 mg/kg BW in 0.025% (w/w) carboxymethylcellulose by oral gavage for 4 days. Control mice received carboxymethylcellulose by oral gavage for 4 days. Blood was collected from the tail tip on day 5 and analyzed for glucose, adiponectin and 25 kDa SOGA. Immediately after the collection of blood samples, ob/ob mice were sacrificed by cervical dislocation for tissue collection. Northern blot analysis for SOGA mRNA and 18S RNA was performed using 20 μg of liver RNA. NOD mice were bred and housed as previously described (Wong et al., J. Immunol. 176:1637 (2006)). […] Glucose was measured by colorimetric assay. Adiponectin and SOGA were measured by SDS-PAGE analysis using 1 μl of plasma. […]

[2] = system: SOGA; format: cell-based, mouse
Experimental: (§1) Mouse livers were perfused with a Krebs-Ringer-HEPES buffer containing collagenase (Sigma-Aldrich). Livers were isolated and cells were dispersed by gentle shaking and filtered through sterile nylon gauze. Cells were washed twice with sterile phosphate-buffered saline and purified by centrifugation in 50% isotonic Percoll (Sigma-Aldrich). Cells were resuspended with Krebs-Ringer-HEPES+Ca^2+ buffer to a total volume of 10 ml. Viability was validated via trypan blue exclusion and routinely exceeded 90%. Freshly isolated mouse hepatocytes were plated at 10^5 cells per well in 12-well culture plates coated with rat tail collagen I (BD Biosciences). […] SOGA siRNA, AICAR (500 μM) or […] (10 nM) were introduced to the media 48 hours before the measurement of glucose production. siRNA sequences corresponding to base pairs 333-351 and 1988-2007 on the open reading frame of murine SOGA were selected using a rational design algorithm (Invitrogen). […] Glucose was measured by colorimetric assay (Autokit Glucose CII) (Brooks et al., J. Biol. Chem. 282:35069 (2007)). Valine in the medium was measured by a UPLC (Waters) coupled TSQ-Quantum ultra triple quad mass analyzer (ThermoFinigan) in the Biomarkers Facility Core at UNC. Valine was measured in selected reaction monitoring mode (SRM) using the MS/MS transition of 118→72.

[3] = system: ob/ob mice; test: Pioglitazone treatment of diabetic ob/ob mice; format: in vivo, mouse; conditions: after 4 days of treatment
Experimental: Mice were housed in ventilated isolator cage systems in a pathogen-free barrier facility maintained at 23° C., 55% humidity on a 12-h light/12-h dark cycle. Mice received a standard chow diet consisting of 73% carbohydrate, 18% protein, 4% fat and 5% ash (Purina). Young (3-6 month old) female C57B1/6J calorie restricted (CR) and ad libitum fed (AL) mice were maintained as previously described (Combs et al., Diabetes 52:268 (2003)). Adjustments were made to ensure that CR mice received 70% of the ad libitum food intake. Blood samples were collected at 1300 from the tail tip using heparinized capillary tubes (Fisher) and stored at −20° C. Male ob/ob mice (FVB background strain) received a daily dose of pioglitazone at 0.6 mg/kg BW in 0.025% (w/w) carboxymethylcellulose by oral gavage for 4 days. Control mice received carboxymethylcellulose by oral gavage for 4 days. Blood was collected from the tail tip on day 5 and analyzed for glucose, adiponectin and 25 kDa SOGA. Immediately after the collection of blood samples, ob/ob mice were sacrificed by cervical dislocation for tissue collection. Northern blot analysis for SOGA mRNA and 18S RNA was performed using 20 μg of liver RNA. NOD mice were bred and housed as previously described (Wong et al., J. Immunol. 176:1637 (2006)). Where indicated, diabetic NOD mice were injected with 5 units of insulin (NPH Human Insulin, Isophane Suspension; 100 U/ml Novolin; Novo Nordisk) 24 hours prior to blood collection. Adiponectin transgenic mice were produced as previously described (Combs et al., Endocrinology 145:367 (2004)). Glucose was measured by colorimetric assay. Adiponectin and SOGA were measured by SDS-PAGE analysis using 1 μl of plasma. […] Experimental procedures were approved by IACUC.

[4] = system: primary murine hepatocytes; test: Hepatocyte glucose production (colorimetric assay); format: cell-based, mouse; conditions: adiponectin exposure (adipocyte conditioned media)
Experimental: as §1

## insulin: NPH Human Insulin, Isophane Suspension (Novolin; Novo Nordisk)
[1]
  induction of SOGA (circulating 25 kDa SOGA): 2 fold

## NC(=O)c1ncn([C@@H]2O[C@H](CO)[C@@H](O)[C@H]2O)c1N [AICAR, N1-(β-D-ribofuranosyl)-5-aminoimidazole-4-carboxamide]
[2]; 500 μM AICAR, with or without adiponectin, n=4 per group
  effect on SOGA level (intracellular and extracellular): decrease in SOGA that was blocked by adiponectin exposure

## CCc1ccc(CCOc2ccc(CC3SC(=O)NC3=O)cc2)nc1 (centres unmarked) [Pioglitazone, pioglitazone]
[3]; untreated ob/ob mice 450±18 mg/dl, p<0.05
  concentration of plasma glucose: 155 ± 8 mg/dL
[3]; daily oral gavage
  elevation of circulating adiponectin: 3 fold
[3]; daily oral gavage, SOGA mRNA/18S RNA
  increase of SOGA mRNA in the liver: 40%
[3]; daily oral gavage, plasma 25 kDa SOGA
  elevation of circulating SOGA: 3 fold

B1: Adiponectin: hormone provided from adipocyte conditioned media with or without adiponectin (protein, UniProt Q15848 19-244, looked up)
Adiponectin: ETTTQGPGVLLPLPKGACTGWMAGIPGHPGHNGAPGRDGRDGTPGEKGEKGDPGLIGPKGDIGETGVPGAEGPRGFPGIQGRKGEPGEGAYVYRSAFSVGLETYVTIPNMPIRFTKIFYNQQNHYDGSTGKFHCNIPGLYYFAYHITVYMKDVKVSLFKKDKAMLFTYDQYQENNVDQASGSVLLHLEVGDQVWLQVYGEGERNGLYADNDNDSTFTGFLLYHDTN
modifications: in adipocyte conditioned media
[4]
  reduction in glucose production: 50%
[2]
  increase of SOGA in primary hepatocytes: 40%
